The source of these data is patent publication US6706740B2, “Fungicidal heterocyclic aromatic amides and their compositions, methods of use and preparation” (Dow AgroSciences LLC, priority 1999, dated 2004).

By inhibition is commonly meant the relative decrease from the control value, in per cent.

Each structure is given as a SMILES string. Where two headings read alike, the source gives them in different places.

Test [1] deals with Erysiphe graminis—ERYSGT. Nature of the test: Powdery Mildew of Wheat, in vivo whole plant, 24 Hour Protectant. Particulars: 100 ppm spray, wheat, 24 hour protectant, control of fungal infection vs untreated plants; for pest or weed control at 100 ppm: Erysiphe, read-out: ERYSGT in vivo 1 Day Protectant.
For test [2], the system named is Septoria tritici—SEPTTR. Nature of the test: Leaf Blotch of Wheat, in vivo whole plant, 24 Hour Protectant. As to conditions: 100 ppm spray, wheat, 24 hour protectant, control of fungal infection vs untreated plants; for pest or weed control at 100 ppm: Zymoseptoria tritici, 24 h, read-out: SEPTTR in vivo 1 Day Protectant.
Test [3] relates to Stagonospora nodorum (Leptosphaeria nodorum—LEPTNO). In words: In vitro fungal growth inhibition, Stagonospora nodorum (LEPTNO). As to conditions: for inhibition at 25 ppm: Leptosphaeria, read-out: LEPTNO in vitro Growth Inhibition. The test is classed as cell-based.
Test [4] deals with Magnaporthe grisea (Pyricularia oryzae—PYRIOR). Nature of the test: microbe, parasite or virus in culture. As to conditions: for inhibition at 25 ppm: Pyricularia oryzae, read-out: PYRIOR in vitro Growth Inhibition. It is filed as cell-based.
The test system of test [5] is Ustilago maydis (USTIMA). In words: microbe, parasite or virus in culture. It is filed as cell-based. Particulars: for inhibition at 25 ppm: Mycosarcoma maydis, read-out: USTIMA in vitro Growth Inhibition.
The test system of test [6] is Rhizoctonia solani (RHIZSO). In words: microbe, parasite or virus in culture. It is filed as cell-based. Particulars: for inhibition at 25 ppm: Rhizoctonia solani, read-out: RHIZSO in vitro Growth Inhibition.
Test [7] has as its system Leptosphaeria nodorum—LEPTNO. In words: Glume Blotch of Wheat, in vivo whole plant, 24 Hour Protectant. Particulars: 100 ppm spray, wheat, 24 hour protectant, control of fungal infection vs untreated plants; for pest or weed control at 100 ppm: Leptosphaeria, read-out: LEPTNO in vivo 1 Day Protectant.
In test [8] the test system is Phytophthora infestans (PHYTIN). In words: microbe, parasite or virus in culture. As to conditions: for inhibition at 25 ppm: Phytophthora infestans, read-out: PHYTIN in vitro Growth Inhibition. It is filed as cell-based.
Test [9] relates to Puccinia recondita—PUCCRT. In words: Brown Rust of Wheat, in vivo whole plant, 24 Hour Protectant. As to conditions: 100 ppm spray, wheat, 24 hour protectant, control of fungal infection vs untreated plants; for pest or weed control at 100 ppm: Puccinia, read-out: PUCCRT in vivo 1 Day Protectant.
Test [10] has as its system Phytophthora infestans—PHYTIN. In words: whole plant or invertebrate. It is filed as in vivo. Particulars: for pest or weed control at 100 ppm: Phytophthora, in Solanum lycopersicum, 24 h, read-out: PHYTIN in vivo 1 Day Protectant.
Test [11] relates to Mycosphaerella graminicola (Septoria tritici—SEPTTR). In words: In vitro fungal growth inhibition, Mycosphaerella graminicola (SEPTTR). Particulars: for inhibition at 25 ppm: Zymoseptoria tritici, read-out: SEPTTR in vitro Growth Inhibition. The test is classed as cell-based.

Consider `COc1ccnc(C(=O)NC(COC(=O)C(Cc2ccccc2)C(C)OC(=O)C(C)C)C(=O)OC(C)C)c1O` (stereo not shown) [Compound 355], for which the pest or weed control at 100 ppm in test [1] is less than 25%; in [2], less than 25%; in test [7], less than 25%; in test [9], 25 to 74%; in [10] it was less than 25%. Besides, the inhibition at 25 ppm in test [3] (25 ppm in growth medium), in test [4], in [5], in [6], in test [8] and in [11] (25 ppm in growth medium) was less than 80% each time.

As to `COc1ccnc(C(=O)NC(COC(=O)C(Cc2ccccc2)C(C)OC(=O)c2ccccc2)C(=O)OC(C)C)c1O` (stereo not shown) [Compound 356], the pest or weed control at 100 ppm in test [1] is less than 25%; in test [2], 25 to 74%; in test [7], 25 to 74%; in test [9] it was 25 to 74%; in test [10], less than 25%. Further, the inhibition at 25 ppm in [3] (25 ppm in growth medium), in test [4], in test [5], in test [6], in test [8] and in test [11] (25 ppm in growth medium) was less than 80% throughout.

For the compound `COc1ccnc(C(=O)NC(COC(=O)C(Cc2ccccc2)C(C)O[Si](C)(C)C(C)(C)C)C(=O)OC(C)C)c1O` (stereo not shown) [Compound 357], the pest or weed control at 100 ppm is less than 25% in test [1], less than 25% in test [2], 25 to 74% in test [7] and less than 25% in [10]. Also, the inhibition at 25 ppm in test [3], in test [4], in [5], in test [6], in [8] and in test [11] was less than 80% in each case. Further, the “PUCCRT in vivo 1 Day Protectant” value in [9] is listed as “+ +”.

Consider `COc1ccnc(C(=O)NC(COC(=O)CCc2ccccc2)C(=O)OC(C)COC(=O)C(C)C)c1O` (stereo not shown) [Compound 358], for which the pest or weed control at 100 ppm in test [1] is less than 25%; in test [2] it was 25 to 74%; in test [7], 25 to 74%; in test [9] it was 25 to 74%; in test [10], less than 25%. Besides, the inhibition at 25 ppm in test [3] (25 ppm in growth medium), in test [4], in test [5], in test [6], in test [8] and in test [11] (25 ppm in growth medium) was less than 80% in each case.

`COc1ccnc(C(=O)NC(COC(=O)CCc2ccccc2)C(=O)OC(C)COC(=O)C(C)C)c1O` (stereo not shown) [Compound 359]: in test [1], the “ERYSGT in vivo 1 Day Protectant” value is given as “− (<25% control of fungal infection)”. The “SEPTTR in vivo 1 Day Protectant” value in test [2] is reported as “+ +”. The “LEPTNO in vitro Growth Inhibition” value in test [3] (25 ppm in growth medium) is reported as “− (less than 80% growth inhibition)”. Moreover, the “PYRIOR in vitro Growth Inhibition” value in [4] (25 ppm in growth medium) is listed as “− (less than 80% growth inhibition)”. Moreover, the “USTIMA in vitro Growth Inhibition” value in test [5] is listed as “− (key: +: at least 80% growth inhibition; −: less than 80% growth inhibition)”. Moreover, the “RHIZSO in vitro Growth Inhibition” value in test [6] is on record as “− (key: +: at least 80% growth inhibition; −: less than 80% growth inhibition)”. Further, in test [7], the “LEPTNO in vivo 1 Day Protectant” value was “+ (25-74% control of fungal infection)”. Besides, the “PHYTIN in vitro Growth Inhibition” value in [8] (25 ppm in growth medium) is listed as “− (less than 80% growth inhibition)”. Besides, in test [9], the “PUCCRT in vivo 1 Day Protectant” value is “+ +”. Moreover, the “PHYTIN in vivo 1 Day Protectant” value in test [10] (100 ppm spray, tomato, 24 hour protectant, control of fungal infection vs untreated plants) is reported as “− (<25% control of fungal infection)”. Further, the “SEPTTR in vitro Growth Inhibition” value in test [11] (25 ppm in growth medium) is on record as “− (less than 80% growth inhibition)”.

As to `COc1ccnc(C(=O)NC(C(=O)OCC(C)C)C(C)OC(=O)C(C)Cc2ccccc2)c1O` (stereo not shown) [Compound 360], the pest or weed control at 100 ppm was less than 25% in test [1], 25 to 74% in test [2], 25 to 74% in test [9] and less than 25% in test [10]. The inhibition at 25 ppm in test [3] (25 ppm in growth medium), in [4], in [5], in test [6], in test [8] and in test [11] (25 ppm in growth medium) was less than 80% throughout. For the same compound, the “LEPTNO in vivo 1 Day Protectant” value in test [7] was “+ +”.

In the case of `COc1ccnc(C(=O)N[C@H](C(=O)O[C@@H](C)[C@H](OC(=O)C(C)C)[C@@H](Cc2ccccc2)C(=O)OCc2ccccc2)[C@@H](C)OC(C)=O)c1O` [Compound 361], the pest or weed control at 100 ppm is less than 25% in test [1], less than 25% in [2], 25 to 74% in [7] and less than 25% in [10]. The inhibition at 25 ppm is less than 80% in [3] (25 ppm in growth medium); more than 80% in test [4]; less than 80% in [5]; less than 80% in test [6]; more than 80% in [8]; more than 80% in test [11] (25 ppm in growth medium). Also, the “PUCCRT in vivo 1 Day Protectant” value in [9] was “+ +”.

Regarding `COc1ccnc(C(=O)NC2COC(=O)CC(c3ccccc3)C(=O)OC2)c1O` (stereo not shown) [Compound 375], the pest or weed control at 100 ppm is less than 25% in [1]; 25 to 74% in [2]; 25 to 74% in [7]; less than 25% in test [9]; less than 25% in test [10]. For the same compound, the inhibition at 25 ppm in [3] (25 ppm in growth medium), in test [4], in test [5], in [6], in test [8] and in [11] (25 ppm in growth medium) was less than 80% each time.

`COc1ccnc(C(=O)NC2CC(=O)OCC(C)COC2=O)c1O` (stereo not shown) [Compound 378]: the pest or weed control at 100 ppm in [1] was less than 25%; in test [2] it was less than 25%; in [7], 25 to 74%; in [9], less than 25%; in test [10], less than 25%. Moreover, the inhibition at 25 ppm in test [3] (25 ppm in growth medium), in test [4], in test [5], in [6], in test [8] and in [11] (25 ppm in growth medium) was less than 80% each time.

Turning to `COc1ccnc(C(=O)N[C@@H]2C(=O)O[C@@H](C)C[C@@H](C)C(=O)O[C@@H]2C)c1O` [Compound 381], the pest or weed control at 100 ppm is less than 25% in test [1]; less than 25% in test [2]; less than 25% in test [7]; 25 to 74% in test [9]; less than 25% in test [10]. Also, the inhibition at 25 ppm in [3] (25 ppm in growth medium) was more than 80%; in [4] it was less than 80%; in test [5], less than 80%; in test [6], less than 80%; in [8] it was less than 80%; in test [11] (25 ppm in growth medium) it was more than 80%.

Take `COc1ccnc(C(=O)N[C@H]2COC(=O)[C@H](Cc3ccccc3)[C@@H](O)[C@H](C)OC2=O)c1O` [Compound 383]: the pest or weed control at 100 ppm is less than 25% in test [1]; less than 25% in [2]; less than 25% in test [7]; 25 to 74% in [9]; less than 25% in test [10]. In addition, the inhibition at 25 ppm in test [3] (25 ppm in growth medium), in test [4], in test [5], in test [6], in [8] and in test [11] (25 ppm in growth medium) was less than 80% throughout.
